Here are results for 15 molecules from PubChem BioAssay (NCI).

The structures appear in SMILES notation. “And” between values parts separate entries of the source, which are not always exact repeats. Equal entries are not always repeated.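 All cell lines were grown in 96-well plates and treated with compound for 48 hours. GI50 marks 50% less growth. TGI: concentration producing complete growth inhibition.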 A value given as a limit tells only on which side of the number the result lay.

Among the test systems are OVCAR-5 ovarian; SK-MEL-2 melanoma; NCI-H460 lung; OVCAR-3 ovarian; HCC-2998 colon; OVCAR-8 ovarian; SR leukemia.
What all share (experiment): NCI-60 cell line screen, 48 h

For the molecule `COc1cc(CC(=O)O)c([N+](=O)[O-])cc1OC`, the TGI in the assay on OVCAR-5 ovarian, with SK-MEL-2 melanoma, in the assay on NCI-H460 lung, in the assay with OVCAR-3 ovarian, with HCC-2998 colon and in the assay with OVCAR-8 ovarian was greater than 100 µM each time.

As to `Cc1cc(C)c(/C=N/NS(=O)(=O)c2ccccc2)c(C)c1`, the TGI in the assay with SR leukemia, in the assay on OVCAR-5 ovarian, in the assay on SK-MEL-2 melanoma, in the assay with NCI-H460 lung, in the assay on OVCAR-3 ovarian and in the assay with HCC-2998 colon was greater than 100 µM in each case. Moreover, the TGI with OVCAR-8 ovarian was greater than 100 µM.

In the case of `N#Cc1cccc(C2C(=O)c3ccc(C(=O)c4ccc5c(c4)C(=O)N(c4ccc(Oc6ccc(N7C(=O)c8ccc(C(=O)c9ccc%10c(c9)C(=O)N(c9cccc(C#N)c9)C%10=O)cc8C7=O)cc6)cc4)C5=O)cc3C2=O)c1` (stereo not given), the TGI in the assay with OVCAR-5 ovarian, in the assay on SK-MEL-2 melanoma, in the assay on NCI-H460 lung, with OVCAR-3 ovarian, in the assay on HCC-2998 colon and in the assay with OVCAR-8 ovarian was greater than 100 µM in each case.

Take `Cc1ccc(NC(=O)CC2SC(=Nc3ccc(Cl)cc3)NC2=O)cc1C` (stereo not given): the TGI in the assay with SR leukemia turned out to be 29.4 µM; with OVCAR-5 ovarian it was 33.1 µM; in the assay on SK-MEL-2 melanoma, 17.9 µM; in the assay on NCI-H460 lung, 18.2 µM; in the assay with OVCAR-3 ovarian it was 33.2 µM; with HCC-2998 colon it was 33.6 µM. Moreover, the TGI with OVCAR-8 ovarian was found to be 32.8 µM.

On to `Fc1ccc(N=C2C=CC(=Nc3ccc(F)cc3)c3ccccc32)cc1`, for which the TGI with SR leukemia, with OVCAR-5 ovarian, in the assay with SK-MEL-2 melanoma, in the assay with NCI-H460 lung, in the assay on OVCAR-3 ovarian and in the assay with HCC-2998 colon was greater than 100 µM throughout. Moreover, in the assay with OVCAR-8 ovarian, the TGI is greater than 100 µM.

Regarding `CC1=CC[C@@H](C(C)(C)O)C[C@@H]1O`, the TGI in the assay with SR leukemia, in the assay with OVCAR-5 ovarian, in the assay on SK-MEL-2 melanoma, in the assay on NCI-H460 lung, with OVCAR-3 ovarian and in the assay with HCC-2998 colon was greater than 5000 µM in each case. Further, the TGI in the assay with OVCAR-8 ovarian is greater than 5000 µM.

On to `CC1C(O)=C(O)c2ccccc2N1O` (stereo not given), for which the TGI in the assay with OVCAR-5 ovarian, in the assay on SK-MEL-2 melanoma, with NCI-H460 lung, in the assay on OVCAR-3 ovarian, with HCC-2998 colon and with OVCAR-8 ovarian was greater than 100 µM each time.

For `Clc1ccccc1C1SCc2nc3ccccc3n21` (stereo not given), the TGI in the assay on SR leukemia was 59.6 µM; in the assay with OVCAR-5 ovarian, 79.4 µM; with SK-MEL-2 melanoma, 57.1 µM; with NCI-H460 lung, greater than 100 µM; in the assay with OVCAR-3 ovarian it was 29.5 µM; in the assay on OVCAR-8 ovarian it was greater than 100 µM.

Take `[CH3][Hg]/[N]=C(/N)NC#N`: the GI50 was 4.39 µM with SR leukemia; 17.1 µM with OVCAR-5 ovarian; 3.65 µM in the assay with SK-MEL-2 melanoma; 25 µM in the assay with NCI-H460 lung; 2.74 µM with OVCAR-3 ovarian; 3.63 µM with OVCAR-8 ovarian. Further, the TGI came to 39.9 µM with SR leukemia; 31 µM in the assay with OVCAR-5 ovarian; 26.7 µM with SK-MEL-2 melanoma; 88.7 µM in the assay on NCI-H460 lung; 8.6 µM with OVCAR-3 ovarian; 16.1 µM in the assay on OVCAR-8 ovarian.

On to `COc1ccc2nc3ccccc3c(NCCN(CCCl)CCCl)c2c1`, for which the TGI in the assay with SR leukemia was determined as 0.379 µM; in the assay on OVCAR-5 ovarian it was 2.49 µM; in the assay with OVCAR-3 ovarian it was 1.08 µM; in the assay with HCC-2998 colon, 2.73 µM; in the assay with OVCAR-8 ovarian it was 2.9 µM.

For the molecule `O=C(CC1(O)C(=O)Nc2ccccc21)c1ccccc1O` (stereo not given), the TGI with OVCAR-5 ovarian, in the assay on SK-MEL-2 melanoma, in the assay with NCI-H460 lung, in the assay on OVCAR-3 ovarian and in the assay with OVCAR-8 ovarian was greater than 100 µM each time.

`Cc1cc(C)nc(NS(=O)(=O)c2ccc(NC(=O)COC(=O)c3cccc4c(=O)c5ccccc5[nH]c34)cc2)n1`: the TGI with SR leukemia was 76.4 µM; in the assay with OVCAR-5 ovarian, 58.9 µM; in the assay on NCI-H460 lung, greater than 100 µM; in the assay with OVCAR-3 ovarian, 51.4 µM; in the assay with HCC-2998 colon, 37.9 µM; in the assay on OVCAR-8 ovarian it was greater than 100 µM.

On to `COc1ccc([C@@H]2OC(=O)C3C2C(=O)O[C@H]3c2ccc(OC)cc2)cc1` (stereo not given in full), for which the TGI in the assay on SR leukemia, with SK-MEL-2 melanoma, in the assay on NCI-H460 lung, in the assay with OVCAR-3 ovarian, with HCC-2998 colon and in the assay with OVCAR-8 ovarian was greater than 100 µM in each case.

For `Cc1cc(Cl)cc2c1NC(=O)C2(O)C(C(=O)c1ccccc1)c1ccccc1` (stereo not given), the TGI is greater than 100 µM in the assay with OVCAR-5 ovarian; greater than 100 µM in the assay on SK-MEL-2 melanoma; greater than 100 µM in the assay with NCI-H460 lung; > 100 µM and 54.1 µM with OVCAR-3 ovarian; > 100 µM and 60.4 µM in the assay with HCC-2998 colon; greater than 100 µM in the assay on OVCAR-8 ovarian. For the same molecule, the GI50 in the assay on NCI-H460 lung is > 100 µM and 36.9 µM; with OVCAR-3 ovarian, 53 µM and 22.4 µM; with OVCAR-8 ovarian, > 100 µM and 32.5 µM.

Regarding `CCOC(=O)C(=O)C(C#N)c1ccc(Cl)cc1` (stereo not given), the TGI with OVCAR-5 ovarian, with SK-MEL-2 melanoma, in the assay on NCI-H460 lung, in the assay with OVCAR-3 ovarian and in the assay with OVCAR-8 ovarian was greater than 100 µM throughout.
